The test system of this series is Hepatotoxicity. The experiment in a line: Literature-mined public compounds from Greene et al multi-species hepatotoxicity modelling dataset.

Numbered stars: 1 amine (or outer) side, 2 acyl side, 3 side chain; on linkers, the order of the positions; unused ones are H or OH. Bridge positions count the residues as written; N and C are the ends. Square brackets hold non-standard residues; d marks the D form. Peptide text beside a SMILES is read from it. I, II: the chains in the order shown. Actinocin(9to1) = Cc1c2oc3c(C)ccc(C(=O)[*:1])c3nc-2c(C(=O)[*:2])c(N)c1=O; NMeV = CN[C@H](C(=O)O)C(C)C; Sar = CNCC(=O)O

Take `Cc1c2oc3c(C)ccc(C(=O)N[C@@H]4C(=O)N[C@H](C(C)C)C(=O)N5CCC[C@H]5C(=O)N(C)CC(=O)N(C)[C@@H](C(C)C)C(=O)O[C@@H]4C)c3nc-2c(C(=O)N[C@@H]2C(=O)N[C@H](C(C)C)C(=O)N3CCC[C@H]3C(=O)N(C)CC(=O)N(C)[C@@H](C(C)C)C(=O)O[C@@H]2C)c(N)c1=O` [DACTINOMYCIN] (I: T[dV]P[Sar][NMeV] / II: T[dV]P[Sar][NMeV]; ester I:1-I:C, II:1-II:C; linker I:N-II:N via Actinocin(9to1)): the Hepatotoxicity entry is recorded as “HH: Evidence of human hepatotoxicity”. For the compound `C#C[C@]1(O)CC[C@H]2[C@@H]3CCC4=Cc5oncc5C[C@]4(C)[C@H]3CC[C@@]21C` [DANAZOL], the Hepatotoxicity result is “HH: Evidence of human hepatotoxicity”. The entry for `O=C1CN(/N=C/c2ccc(-c3ccc([N+](=O)[O-])cc3)o2)C(=O)[N-]1.[Na+]` [DANTROLENE SODIUM] is “HH: Evidence of human hepatotoxicity”. As to `Nc1ccc(S(=O)(=O)c2ccc(N)cc2)cc1` [DAPSONE], the Hepatotoxicity result was “HH: Evidence of human hepatotoxicity”.

Take `CC(=O)N(O)CCCCCNC(=O)CCC(=O)N(O)CCCCCNC(=O)CCC(=O)N(O)CCCCCN.CS(=O)(=O)O` [DEFEROXAMINE MESYLATE]: the Hepatotoxicity entry is recorded as “HH: Evidence of human hepatotoxicity”. As for `CN(CCCCCCCCCCN(C)C(=O)Oc1cccc([N+](C)(C)C)c1)C(=O)Oc1cccc([N+](C)(C)C)c1.[Br-].[Br-]` [DEMECARIUM BROMIDE], the Hepatotoxicity entry was “HH: Evidence of human hepatotoxicity”. The entry for `CN(C)[C@@H]1C(O)=C(C(N)=O)C(=O)[C@@]2(O)C(O)=C3C(=O)c4c(O)ccc(Cl)c4[C@@H](O)[C@H]3C[C@@H]12.Cl` [DEMECLOCYCLINE HYDROCHLORIDE] is “HH: Evidence of human hepatotoxicity”; for `CNCCCN1c2ccccc2CCc2ccccc21` [DESIPRAMINE] it is “WE: Weak evidence (<10 case reports) of human hepatotoxicity”. `C[C@@H]1C[C@H]2[C@@H]3CCC4=CC(=O)C=C[C@]4(C)[C@@]3(F)[C@@H](O)C[C@]2(C)[C@@]1(O)C(=O)CO` [DEXAMETHASONE]: the Hepatotoxicity result is listed as “NE: No evidence of hepatotoxicity in any species”. With `C[C@H](N)Cc1ccccc1.C[C@H](N)Cc1ccccc1.O=S(=O)(O)O` [DEXTROAMPHETAMINE SULFATE] the entry was “HH: Evidence of human hepatotoxicity”; with `Br.COc1ccc2c(c1)[C@]13CCCC[C@@H]1[C@H](C2)N(C)CC3.O` [DEXTROMETHORPHAN HYDROBROMIDE], “NE: No evidence of hepatotoxicity in any species”. As to `Cc1onc(-c2c(Cl)cccc2Cl)c1C(=O)N[C@@H]1C(=O)N2[C@@H]1SC(C)(C)[C@@H]2C(=O)[O-].O.[Na+]` [DICLOXACILLIN SODIUM], the Hepatotoxicity result is recorded as “HH: Evidence of human hepatotoxicity”. With `O=c1[nH]cnc2c1ncn2[C@H]1CC[C@@H](CO)O1` [DIDANOSINE] the entry was “HH: Evidence of human hepatotoxicity”. Turning to `CCN(CC)C(=O)N1CCN(C)CC1` [DIETHYLCARBAMAZINE], the Hepatotoxicity result was “HH: Evidence of human hepatotoxicity”. With `O=C(O)c1cc(-c2ccc(F)cc2F)ccc1O` [DIFLUNISAL] the entry was “HH: Evidence of human hepatotoxicity”. With `C[C@H]1O[C@@H](O[C@H]2[C@@H](O)C[C@H](O[C@H]3[C@@H](O)C[C@H](O[C@H]4CC[C@@]5(C)[C@H](CC[C@@H]6[C@@H]5C[C@@H](O)[C@]5(C)[C@@H](C7=CC(=O)OC7)CC[C@]65O)C4)O[C@@H]3C)O[C@@H]2C)C[C@H](O)[C@@H]1O` [DIGOXIN], the Hepatotoxicity result was “NE: No evidence of hepatotoxicity in any species”. With `C[C@H](CCc1ccccc1)NC[C@H](O)c1ccc(O)c(C(N)=O)c1` [DILEVALOL] the entry was “HH: Evidence of human hepatotoxicity”; with `OCC(S)CS` (configuration not stated) [DIMERCAPROL], “HH: Evidence of human hepatotoxicity”; with `O=C1CCC(=O)N1c1cc(Cl)cc(Cl)c1` [DIMETHACHLON], “AH: Evidence for animal hepatotoxicity but not tested in humans”. As to `CN(C)C=O` [DIMETHYLFORMAMIDE], the Hepatotoxicity result is given as “AH: Evidence for animal hepatotoxicity but not tested in humans”. Turning to `CCOC(=O)C1(c2ccccc2)CCN(CCC(C#N)(c2ccccc2)c2ccccc2)CC1.Cl` [DIPHENOXYLATE HYDROCHLORIDE], the Hepatotoxicity result is recorded as “NE: No evidence of hepatotoxicity in any species”. Turning to `CC(C)N(CCC(C(N)=O)(c1ccccc1)c1ccccn1)C(C)C.O=P(O)(O)O` (configuration not stated) [DISOPYRAMIDE PHOSPHATE], the Hepatotoxicity result is given as “HH: Evidence of human hepatotoxicity”. With `CC(CCc1ccc(O)cc1)NCCc1ccc(O)c(O)c1.Cl` (configuration not stated) [DOBUTAMINE HYDROCHLORIDE] the entry was “NE: No evidence of hepatotoxicity in any species”; with `COc1cc2c(cc1OC)C(=O)C(CC1CCN(Cc3ccccc3)CC1)C2` (configuration not stated) [DONEPEZIL], “WE: Weak evidence (<10 case reports) of human hepatotoxicity”; with `NCCc1ccc(O)c(O)c1` [DOPAMINE], “NE: No evidence of hepatotoxicity in any species”. The entry for `COc1cccc2c1C(=O)c1c(O)c3c(c(O)c1C2=O)C[C@@](O)(C(=O)CO)C[C@@H]3O[C@H]1C[C@H](N)[C@H](O)[C@H](C)O1.Cl` [DOXORUBICIN HYDROCHLORIDE] is “HH: Evidence of human hepatotoxicity”; for `COc1cccc2c1C(=O)c1c(O)c3c(c(O)c1C2=O)C[C@@](O)(C(=O)CO)C[C@@H]3O[C@H]1C[C@H](N)[C@H](O)[C@H](C)O1` [DOXORUBICIN] it is “NE: No evidence of hepatotoxicity in any species”. The entry for `Clc1ccc(COC(Cn2ccnc2)c2ccc(Cl)cc2Cl)cc1.O=[N+]([O-])O` (configuration not stated) [ECONAZOLE NITRATE] is “NE: No evidence of hepatotoxicity in any species”; for `CC[N+](C)(C)c1cccc(O)c1.[Cl-]` [EDROPHONIUM CHLORIDE] it is “NE: No evidence of hepatotoxicity in any species”; for `CCN(CC)CCOc1ccc(/C(=C(/Cl)c2ccccc2)c2ccccc2)cc1.O=C(O)CC(O)(CC(=O)O)C(=O)O` [ENCLOMIPHENE CITRATE] it is “HH: Evidence of human hepatotoxicity”. Regarding `CCN(CC)C(=O)/C(C#N)=C/c1cc(O)c(O)c([N+](=O)[O-])c1` [ENTACAPONE], the Hepatotoxicity entry is reported as “WE: Weak evidence (<10 case reports) of human hepatotoxicity”.

For `COc1cccc2c1C(=O)c1c(O)c3c(c(O)c1C2=O)C[C@@](O)(C(=O)CO)C[C@@H]3O[C@H]1C[C@H](N)[C@@H](O)[C@H](C)O1` [EPIRUBICIN], the Hepatotoxicity result is “NE: No evidence of hepatotoxicity in any species”.

In the case of `CCCCc1ncc(/C=C(\Cc2cccs2)C(=O)O)n1Cc1ccc(C(=O)O)cc1` [EPROSARTAN], the Hepatotoxicity result is on record as “WE: Weak evidence (<10 case reports) of human hepatotoxicity”. In the case of `C=C1CC[C@H](O)C/C1=C/C=C1\CCC[C@]2(C)[C@@H]([C@H](C)/C=C/[C@H](C)C(C)C)CC[C@@H]12` [ERGOCALCIFEROL], the Hepatotoxicity entry is “NE: No evidence of hepatotoxicity in any species”. With `C[C@@H](CO)NC(=O)[C@@H]1C=C2c3cccc4[nH]cc(c34)C[C@H]2N(C)C1.O=C(O)/C=C\C(=O)O` [ERGONOVINE MALEATE] the entry was “NE: No evidence of hepatotoxicity in any species”; with `CN1C[C@H](C(=O)N[C@]2(C)O[C@@]3(O)[C@@H]4CCCN4C(=O)[C@H](Cc4ccccc4)N3C2=O)C=C2c3cccc4[nH]cc(c34)C[C@H]21.CN1C[C@H](C(=O)N[C@]2(C)O[C@@]3(O)[C@@H]4CCCN4C(=O)[C@H](Cc4ccccc4)N3C2=O)C=C2c3cccc4[nH]cc(c34)C[C@H]21.O=C(O)C(O)C(O)C(=O)O` [ERGOTAMINE TARTRATE], “NE: No evidence of hepatotoxicity in any species”; with `CCC(=O)O[C@H]1[C@H](O[C@@H]2[C@@H](C)[C@H](O[C@H]3C[C@@](C)(OC)[C@@H](O)[C@H](C)O3)[C@@H](C)C(=O)O[C@H](CC)[C@@](C)(O)[C@H](O)[C@@H](C)C(=O)[C@H](C)C[C@@]2(C)O)O[C@H](C)C[C@@H]1N(C)C.CCCCCCCCCCCCOS(=O)(=O)O` [ERYTHROMYCIN ESTOLATE], “HH: Evidence of human hepatotoxicity”. As to `CC[C@H]1OC(=O)[C@H](C)[C@@H](O[C@H]2C[C@@](C)(OC)[C@@H](O)[C@H](C)O2)[C@H](C)[C@@H](O[C@@H]2O[C@H](C)C[C@H](N(C)C)[C@H]2O)[C@](C)(O)C[C@@H](C)C(=O)[C@H](C)[C@@H](O)[C@]1(C)O` [ERYTHROMYCIN], the Hepatotoxicity entry is on record as “WE: Weak evidence (<10 case reports) of human hepatotoxicity”. As to `C[C@]12CC[C@@H]3c4ccc(O)cc4CC[C@H]3[C@@H]1CC[C@@H]2O[C@@H]1O[C@H](C(=O)O)[C@@H](O)[C@H](O)[C@H]1O` [ESTRADIOL 17B GLUCURONIDE], the Hepatotoxicity entry is reported as “HH: Evidence of human hepatotoxicity”. With `C[C@]12CC[C@@H]3c4ccc(O)cc4CC[C@H]3[C@@H]1CC[C@@H]2O` [ESTRADIOL] the entry was “WE: Weak evidence (<10 case reports) of human hepatotoxicity”; with `C[C@]12CC[C@@H]3c4ccc(O)cc4CC[C@H]3[C@@H]1CCC2=O` [ESTRONE], “HH: Evidence of human hepatotoxicity”. With `CS(=O)(=O)OCCOS(C)(=O)=O` [ETHANE DIMETHANE SULFONATE] the entry was “AH: Evidence for animal hepatotoxicity but not tested in humans”; with `C#C[C@]1(O)CC[C@H]2[C@@H]3CCc4cc(O)ccc4[C@H]3CC[C@@]21C` [ETHINYL ESTRADIOL], “HH: Evidence of human hepatotoxicity”. With `CCC1(C)CC(=O)NC1=O` (configuration not stated) [ETHOSUXIMIDE] the entry was “HH: Evidence of human hepatotoxicity”; with `OCCO` [ETHYLENE GLYCOL], “AH: Evidence for animal hepatotoxicity but not tested in humans”; with `C#C[C@]1(OC(C)=O)CC[C@H]2[C@@H]3CCC4=C[C@@H](OC(C)=O)CC[C@@H]4[C@H]3CC[C@@]21C` [ETHYNODIOL DIACETATE], “HH: Evidence of human hepatotoxicity”.

Regarding `COc1cc([C@@H]2c3cc4c(cc3[C@@H](O[C@@H]3O[C@@H]5CO[C@@H](C)O[C@H]5[C@H](O)[C@H]3O)[C@H]3COC(=O)[C@H]23)OCO4)cc(OC)c1O` [ETOPOSIDE], the Hepatotoxicity entry is reported as “HH: Evidence of human hepatotoxicity”.

Source of the values: ChEMBL document CHEMBL1697692, “Developing structure-activity relationships for the prediction of hepatotoxicity” (Chem Res Toxicol, 2010).
